{"source": "patent US20260115250A1", "about": "“METHODS OF TREATING AGE-RELATED MACULAR DEGENERATION” (Character Biosciences, Inc., priority 2022, published 2026)", "key": {"ARPE-19 cells": {"test_system": "ARPE-19 cells", "assay": "ARPE-19 cell lysis (Sytox Green)", "assay_type": "cell-based, human", "conditions": "10 μM peptide, 2 h", "description": "These figures illustrate ARPE-19 cell lysis. ARPE-19 cells were grown in 96-well plates to 75-85% confluence. Peptides at 10 mM were diluted in serum-free DMEM:F12 media into a 20 μM working solution (a 2× solution). Sytox Green was prepared in serum-free DMEM:F12 at a 1 μM working solution (a 2× solution). Equivalent volumes of the peptide and Sytox Green solutions were added to empty 96-well plates and mixed gently. Final peptide concentration was 10 μM. ARPE-19 cells (˜80% confluent in 96-well plates) were washed with DPBS and then incubated in 100 μL of peptide/Sytox Green mixture for 2 h at 37° C. Cells were fixed in 4% paraformaldehyde solution in DPBS and then incubated in 10 μM Hoechst solution for 10 min, washed, and imaged on a Yokogawa CQ1 high-content imager. CellPathfinder software was used to count live/dead cells in 4 fields of view at 20× magnification. Percent (%) lysis was calculated by dividing the number of Sytox Green+ nuclei by the total number of Hoechst+ nuclei.\nARPE-19 cells were grown in 96-well plates to 75-85% confluence. Peptides at 10 mM were diluted in serum-free DMEM: F12 media to solutions between […]. Sytox Green was prepared in serum-free DMEM: F12 media at a 1 μM working solution. Equivalent volumes of the peptide and Sytox Green solutions were added to empty 96-well plates and mixed gently. Final peptide concentration was 3.16-100 μM. ARPE-19 cells (˜80% confluent in 96-well plates) were washed with DPBS and then incubated in 100 μL of peptide/Sytox Green mixture for 2 h at 37° C. Cells were fixed in 4% paraformaldehyde solution in DPBS and then incubated in 10 μM Hoechst solution for 10 min, washed, and imaged on a Yokogawa CQ1 high-content imager. CellPathfinder software was used to count live/dead cells in 4 fields of view at 20× magnification. Percent (%) lysis was calculated by dividing the number of Sytox Green+ nuclei by the total number of Hoechst+ nuclei. Non-linear regression was used to calculate EC50 values."}, "C57BL/6J mice": {"test_system": "C57BL/6J mice", "assay": "tolerability testing in mice after intravitreal injection (H&E histopathology)", "assay_type": "in vivo, mouse", "conditions": "IVT, 520 μM, seven days", "source_text": "Seven days following IVT injection, eyes were harvested and prepared for hematoxylin and eosin staining. A blinded veterinarian performed histopathological analysis of tissue slices to determine whether the peptides induced inflammation or retinal disruption."}, "LDLR [1]": {"molecular_target": "T1, LDLR (Homo sapiens, UniProt P01130)", "T1 sequence (P01130 22-860)": "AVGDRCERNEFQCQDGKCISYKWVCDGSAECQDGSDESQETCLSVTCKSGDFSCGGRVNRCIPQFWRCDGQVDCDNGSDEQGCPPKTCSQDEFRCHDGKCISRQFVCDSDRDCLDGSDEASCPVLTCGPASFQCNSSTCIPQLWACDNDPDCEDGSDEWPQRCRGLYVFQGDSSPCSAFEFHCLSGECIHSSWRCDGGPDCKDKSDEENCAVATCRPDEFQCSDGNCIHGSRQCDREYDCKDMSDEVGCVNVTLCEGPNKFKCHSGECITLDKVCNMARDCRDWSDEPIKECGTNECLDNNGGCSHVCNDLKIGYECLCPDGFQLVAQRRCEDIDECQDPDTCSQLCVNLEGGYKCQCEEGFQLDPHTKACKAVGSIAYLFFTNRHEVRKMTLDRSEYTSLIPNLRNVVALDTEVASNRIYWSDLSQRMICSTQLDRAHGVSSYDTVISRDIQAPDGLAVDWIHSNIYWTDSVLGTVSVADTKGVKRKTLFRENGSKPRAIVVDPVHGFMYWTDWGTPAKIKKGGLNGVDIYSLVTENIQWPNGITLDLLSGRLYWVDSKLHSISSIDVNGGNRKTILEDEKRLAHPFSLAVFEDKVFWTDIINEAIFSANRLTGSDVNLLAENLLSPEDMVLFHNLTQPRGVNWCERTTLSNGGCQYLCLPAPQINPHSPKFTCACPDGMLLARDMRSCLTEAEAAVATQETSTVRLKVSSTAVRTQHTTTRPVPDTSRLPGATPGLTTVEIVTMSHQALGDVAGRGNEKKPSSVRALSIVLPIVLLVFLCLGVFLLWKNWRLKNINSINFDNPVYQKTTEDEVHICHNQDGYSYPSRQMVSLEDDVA", "assay": "LDLR binding (SPR), high surfactant preparation", "in_short": "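Multi-cycle kinetics fitted 1:1: peptide flowed at 30 μL/sec for 120 seconds over immobilised LDLR (amine coupling, CM5, 1000 RU) in running buffer HBS-P+ plus 1 mM CaCl2. Five concentrations per peptide, 1:3 serial from 5 μM; surface regenerated between cycles with 50 mM NaOH/100 mM EDTA.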"}, "[2]": {"assay": "DMPC solubility assay, 0.5 mM DMPC (turbidity reduction)", "assay_type": "biochemical", "conditions": "FIGS. 2A-2D and 3A-3C", "description": "In this example, peptide stocks were diluted to 200 μM in H2O (a 2× solution) and 50 μL of peptide solution was transferred in triplicate into 96-well plates. A one mM solution of 1,2-dimyristoyl-sn-glycero-3-phosphocholine (DMPC) in H2O was prepared, and using a multichannel pipet, 50 μL DMPC solution was rapidly added to the plate. Peptide and lipid solutions were incubated at room temperature for 15 minutes with a final concentration of 100 μM peptides and 0.5 mM DMPC. After 15 minutes, absorbance was read on a plate reader at 405 nm. […] Data are presented as mean+SD over two runs.\nIn these experiments, DMPC solubility titration curves were generated. Peptide stocks were diluted to 200 μM in H2O (a 2× solution) and serially diluted in H2O over 4 concentrations, then 50 μL of peptide solutions were distributed in triplicate into 96-well plates. A 1 mM solution of 1,2-dimyristoyl-sn-glycero-3-phosphocholine (DMPC) in H2O was prepared, and using a multichannel pipet, 50 μL DMPC solution was rapidly added to the plate. Peptide and lipid solutions were incubated at room temperature for 15 minutes with final concentrations of 3.16-100 μM peptides and 0.5 mM DMPC. After 15 minutes, absorbance was read on a plate reader at 405 nm. […] Data are presented as mean+SD over two runs. Non-linear regression was used to calculate EC50 values."}, "LDLR [3]": {"molecular_target": "T1, LDLR", "assay": "lipid-dependent LDLR binding (SPR), single concentration", "conditions": "1 μM peptide with or without 25 μM DMPC", "description": "Peptides were diluted in 1×HBS-N buffer with 1 mM CaCl2 to a final concentration of 1 μM and incubated with or without 25 μM DMPC for 1 hour at RT to form lipid complexes. Each peptide was tested in duplicate. LDLR was diluted to 10 μg/mL in 10 mM acetate buffer pH 4.5 and was immobilized (˜400RU) on a CM5 chip via amine coupling utilizing 1×HBS-P+ buffer with 1 mM CaCl2. Test peptides (with or without DMPC) were exposed to immobilized LDLR at a flow rate of […] for 120 seconds in HBS-N with 1 mM CaCl2. Between cycles the surface was regenerated with 3, 30 second injections of 10 mM NaOH and 100 mM EDTA. Data are plotted as max RU values, averaged from three separate runs."}, "[4]": {"assay": "peptide binding to non-oxidized and oxidized lipids (SPR)", "conditions": "immobilized peptide; RU normalized to DMPC", "description": "FIGS. 25A-25O show peptide binding activity to non-oxidized and oxidized lipids via SPR for indicated peptides. Peptides were reconstituted to 50 μg/mL in 10 mM acetate buffer, pH 4.5 and immobilized to ˜200 RU on a CM5 chip via amine coupling. Non-oxidized lipids (DMPC & POPC) and oxidized lipids (POVPC & KOdiA-PC) were diluted to 100 µM in HBS-EP running buffer and exposed to the chip for binding (n=3) at a flow rate of […] for 120 seconds. The surface was regenerated with 20% EtOH. T-001 served as a positive control and T-031 served as a negative control on each chip. For each peptide, the RU response for all lipids was normalized to the DMPC RU values."}}, "note": "Ends that are not written are not given here. Peptide text beside a SMILES is read from it.", "data": [{"molecule": "CC(C)C[C@H](NC(=O)[C@H](CC(C)C)NC(=O)[C@H](CCCNC(=N)N)NC(=O)[C@H](CCCCN)NC(=O)[C@H](CCCNC(=N)N)NC(=O)[C@H](CC(C)C)NC(=O)[C@H](CCCCN)NC(=O)[C@H](CCCNC(=N)N)NC(=O)[C@H](CC(C)C)NC(=O)[C@@H](N)Cc1c[nH]cn1)C(=O)N[C@@H](CCCNC(=N)N)C(=O)N[C@@H](CC(=O)O)C(=O)N[C@@H](Cc1c[nH]c2ccccc12)C(=O)N[C@@H](Cc1ccccc1)C(=O)N[C@@H](CCCCN)C(=O)N[C@@H](C)C(=O)N[C@@H](Cc1ccccc1)C(=O)N[C@@H](Cc1ccc(O)cc1)C(=O)N[C@@H](CC(=O)O)C(=O)N[C@@H](CCCCN)C(=O)N[C@H](C(=O)N[C@@H](C)C(=O)N[C@@H](CCC(=O)O)C(=O)N[C@@H](CCCCN)C(=O)N[C@@H](Cc1ccccc1)C(=O)N[C@@H](CCCCN)C(=O)N[C@@H](CCC(=O)O)C(=O)N[C@@H](C)C(=O)N[C@@H](Cc1ccccc1)C(=O)O)C(C)C", "note": "[T-021] (H-HLRKLRKRLLRDWFKAFYDKVAEKFKEAF-OH)", "values": [{"measurement": "ARPE-19 cell lysis", "setting": "ARPE-19 cells", "result": "induce cell lysis"}]}, {"molecule": "CC(C)C[C@H](NC(=O)[C@H](Cc1ccccc1)NC(=O)[C@H](CCC(=O)O)NC(=O)[C@H](CCC(=O)O)NC(=O)[C@H](CC(C)C)NC(=O)[C@H](CCC(N)=O)NC(=O)[C@H](CCCNC(=N)N)NC(=O)CNC(=O)[C@@H](NC(=O)[C@H](CC(C)C)NC(=O)[C@H](CCCNC(=N)N)NC(=O)[C@H](CC(C)C)NC(=O)[C@H](CC(C)C)NC(=O)[C@H](CCCNC(=N)N)NC(=O)[C@H](CCCCN)NC(=O)[C@H](CCCNC(=N)N)NC(=O)[C@H](CC(C)C)NC(=O)[C@H](CCCCN)NC(=O)[C@H](CCCNC(=N)N)NC(=O)[C@H](CC(C)C)NC(=O)[C@@H](N)Cc1c[nH]cn1)C(C)C)C(=O)O", "note": "[T-028] (H-HLRKLRKRLLRLVGRQLEEFL-OH)", "values": [{"measurement": "ARPE-19 cell lysis", "setting": "ARPE-19 cells", "result": "induce cell lysis"}]}, {"molecule": "CC[C@H](C)[C@H](NC(=O)CN)C(=O)N[C@@H](CCCCN)C(=O)N[C@@H](CCCCN)C(=O)N[C@@H](Cc1ccccc1)C(=O)N[C@@H](CC(C)C)C(=O)NCC(=O)N[C@@H](CO)C(=O)N[C@H](C(=O)N[C@@H](Cc1c[nH]c2ccccc12)C(=O)N[C@@H](CCCCN)C(=O)N[C@@H](Cc1ccccc1)C(=O)N[C@H](C(=O)N[C@@H](CCCCN)C(=O)N[C@@H](C)C(=O)N[C@@H](Cc1ccccc1)C(=O)N[C@H](C(=O)NCC(=O)O)C(C)C)[C@@H](C)CC)[C@@H](C)CC", "note": "[T-034, reference compound] (H-GIKKFLGSIWKFIKAFVG-OH)", "values": [{"measurement": "ARPE-19 cell lysis", "setting": "ARPE-19 cells", "result": "induce cell lysis"}]}, {"molecule": "CC(C)C[C@H](NC(=O)[C@H](C)NC(=O)[C@H](CCCNC(=N)N)NC(=O)[C@H](Cc1ccccc1)NC(=O)[C@H](CCCNC(=N)N)NC(=O)[C@H](CCC(=O)O)NC(=O)[C@H](Cc1c[nH]c2ccccc12)NC(=O)[C@H](C)NC(=O)[C@@H](N)CC(=O)O)C(=O)N[C@@H](Cc1ccccc1)C(=O)N[C@@H](CCCCN)C(=O)N[C@@H](CCC(=O)O)C(=O)N[C@@H](CC(C)C)C(=O)N[C@@H](C)C(=O)N[C@@H](CC(=O)O)C(=O)N[C@@H](Cc1ccc(O)cc1)C(=O)N[C@@H](Cc1ccccc1)C(=O)N[C@@H](CCCNC(=N)N)C(=O)O", "note": "[T-087] (H-DAWERFRALFKELADYFR-OH; N-terminus and C-terminus assumed)", "values": [{"measurement": "in vivo tolerability (inflammation or retinal disruption)", "setting": "C57BL/6J mice", "result": "well tolerated"}]}, {"molecule": "CC[C@H](C)[C@H](NC(=O)[C@H](Cc1ccccc1)NC(=O)[C@H](CCCNC(=N)N)NC(=O)[C@H](CCCCN)NC(=O)[C@H](CC(C)C)NC(=O)[C@H](CCC(=O)O)NC(=O)[C@H](CCCCN)NC(=O)[C@H](CC(C)C)NC(=O)[C@H](C)NC(=O)[C@H](CO)NC(=O)[C@H](CCC(=O)O)NC(=O)[C@H](CC(C)C)NC(=O)[C@H](C)NC(=O)[C@H](CC(=O)O)NC(=O)[C@H](C)NC(=O)CNC(=O)[C@H](CO)NC(=O)[C@@H](N)CCCNC(=N)N)C(=O)N[C@@H](CCCNC(=N)N)C(=O)N[C@@H](CCC(=O)O)C(=O)N[C@@H](Cc1c[nH]c2ccccc12)C(=O)N[C@H](C(=O)O)[C@@H](C)O", "note": "[T-101] (H-RSGADALESALKELKRFIREWT-OH; N-terminus and C-terminus assumed)", "values": [{"measurement": "in vivo tolerability (inflammation or retinal disruption)", "setting": "C57BL/6J mice", "result": "well tolerated"}]}, {"molecule": "LKDFGERVARALREQFEDLGQSTEELRVRLASHLRKLRKRLLRDADDLQKRLAVYQA [T-114]", "values": [{"measurement": "Kd", "setting": "LDLR [1]", "result": "< 10", "unit": "µM"}, {"measurement": "in vivo tolerability (inflammation or retinal disruption)", "setting": "C57BL/6J mice", "result": "well tolerated"}]}, {"molecule": "T-007: therapeutic peptide (EELRVRLASHLRKLRKRLLRDADDLQKRLAVYQA)", "values": [{"measurement": "DMPC solubilizing activity", "setting": "[2]", "result": "significant activity"}, {"measurement": "lipid-dependent LDLR binding (RU with lipid vs peptide alone)", "setting": "LDLR [3]", "result": "lipid-dependent LDLR binding activity"}]}, {"molecule": "T-009: therapeutic peptide (EELRVRLASHLRKLRKRLLRDADDLQKRLAVYQAGAREGAERGLSAIRER)", "values": [{"measurement": "DMPC solubilizing activity", "setting": "[2]", "result": "significant activity"}, {"measurement": "lipid-dependent LDLR binding (RU with lipid vs peptide alone)", "setting": "LDLR [3]", "result": "lipid-dependent LDLR binding activity"}, {"measurement": "binding to oxidized lipids relative to DMPC", "setting": "[4]", "result": "binding to at least one oxidized lipid that was equivalent or improved to binding against DMPC"}]}, {"molecule": "T-018: therapeutic peptide (HLRKLRKRLLRPPEQAQQIRLQAEAFQARLKSWFE)", "values": [{"measurement": "DMPC solubilizing activity", "setting": "[2]", "result": "significant activity"}, {"measurement": "lipid-dependent LDLR binding (RU with lipid vs peptide alone)", "setting": "LDLR [3]", "result": "lipid-dependent LDLR binding activity"}]}, {"molecule": "T-030: therapeutic peptide (EHLCELIERACRKLVELQEKLSKWLIAELGEGWRQWLHSLKEFLS)", "values": [{"measurement": "DMPC solubilizing activity", "setting": "[2]", "result": "significant activity"}, {"measurement": "binding to oxidized lipids relative to DMPC", "setting": "[4]", "result": "binding to at least one oxidized lipid that was equivalent or improved to binding against DMPC"}]}, {"molecule": "YKDFGERVERALGRQLEMLGQSTEELRVRLASHLRKLRKRLLRDADDLQKRLAVYQA [T-112]", "values": [{"measurement": "Kd", "setting": "LDLR [1]", "result": "< 10", "unit": "µM"}, {"measurement": "in vivo tolerability (inflammation or retinal disruption)", "setting": "C57BL/6J mice", "result": "all peptides except T-112 were well tolerated"}]}]}
